According to patent US20220105157A1, “Compositions and Methods for Promoting Angiogenesis in the Eye” (The Regents of the University of California, priority 2019, published 2022):

Assays:
[1] = system: bovine retinal endothelial (BRE) cells; test: BRE endothelial cell proliferation assay (alamar blue); format: cell-based
Experimental: The bovine endothelial proliferation assays were performed essentially as previously described (63, 64). BCE (1×10^3 cells/well) or BRE (5×10^2 cells/well) cells were seeded in 96-well plates in the culture medium (DMEM-low glucose supplemented with 10% BCS, 2 mM glutamine and antibiotics) plus testing materials with a total volume of 200 μl per well. BAE cells were plated in 96-well plates at a density of 2×10^3 cells in the culture medium (DMEM-low glucose supplemented with 1% BCS and antibiotics) plus testing material with a total volume of 200 μl per well. HRME cells were seeded at a density of 1×10^3 cells/well in gelatin-coated 96-well plates in assay medium (DMEM-low glucose supplemented with 20% FBS and antibiotics) plus testing materials to make a total volume 200 μl per well. For assays involving antibodies or small-molecule inhibitors, inhibitors or vehicle controls were first added and then test materials were added one hour later. After 6 days (unless otherwise specified), cells were incubated with alamar blue for 4 h. Fluorescence was measured at 530 nm excitation wavelength and 590 nm emission wavelength. Each experiment was carried out in duplicate/triplicate and repeated at least three times.

mouse choroidal explants = test: Mouse choroidal explant assay (ex vivo sprouting); format: cell-based; conditions: LIF 10 ng/ml, compared with control
Experimental: In a 48-well plate, 60 μL of growth factor-reduced basement membrane extract (GFR-BME) (Corning, CAT #354230) was added to each well and allowed to solidify at 37° C. for 20 minutes. A dice of the peripheral choroid-scleral complex (approximately 1 mm×1 mm), dissected from male C57BL/6J mice (age P20), was added to the center of each well as previously described (23). A top layer of 60 μL GFR-BME was added to each well, followed by incubation at 37° C. for 30 minutes. Upon adding 500 μL of endothelial cell growth basal medium EBM-2 (Lonza, CAT #CC3156) supplemented with 2% FBS and antibiotics, endogenous VEGF activity of choroid explants was blunted by 5 μg/ml of anti-VEGF Mab B20-4.1.1. After 90 minutes of incubation with the antibody, 10 ng/ml of LIF or PBS control was added in the test wells. Tissues were incubated in standard cell culture conditions with 5% CO2 and fresh media were changed every 48 hours. Phase contrast Z-stack images of each explants were taken on day 5 using a Keyence microscope. Vessel sprouting areas were quantified using ImageJ software. The experiment was repeated three times and data were obtained by analyzing 5 replicates per each condition each time.

[2] = system: choroid capillaries of NaIO3-treated mice; test: Sodium iodate (NaIO3) model, choroid capillary recovery; format: in vivo, mouse; conditions: NaIO3 20 mg/kg i.v.; intravitreal LIF 50 ng, CT-1 different doses, OSM 10 ng; OCT-A
Experimental: Eight-week-old C57BL/6J mice were anesthetized with ketamine/xylazine cocktail. Sterilized NaIO3 was administered as a single intravenous injection (20 mg/kg body weight) (28) (29). Control mice were injected with PBS. PBS, LIF (50 ng), CT-1 (different doses) or OSM (10 ng) was injected intravitreally in five-mice groups. Five, seven and nine days after injection, choroid capillaries were monitored by OCT-A system. 9 days after injection, mice were killed and eyes were harvested for H&E and immunofluorescent staining. Avascular area in choroid capillaries was analyzed using ImageJ.

guinea pig skin = test: Vessel permeability in guinea pig skin (Evans blue); format: in vivo; conditions: intradermal 1, 5, 25, 100, 200 ng per injection site
Experimental: In FIG. 5A, Hairless male guinea pigs (Crl: HA-Hrhr/IAF, 450-500 g, Charles River Laboratories) were anesthetized by intraperitoneal (i.p.) administration of xylazine (5 mg/kg) and ketamine (75 mg/kg). The animals then received an intravenous injection (penile vein) of 1 ml of 1% Evans blue dye. After 15 min, intradermal injections (0.05 ml/per site) of different doses (1, 5, 25, 100, 200 ng per injection site) of rhLIF in PBS were administrated into the area of trunk posterior to the shoulder. 0.05 ml of PBS and 25 ng of VEGF in 0.05 ml of PBS were injected as negative and positive controls. 30 min after the intradermal injections, animals were euthanized by i.p. injection of pentobarbital (200 mg/kg). Skin tissues were dissected from the connective tissues and photographed, n=2. In FIG. 5B, Vascular leakage is shown in mouse retina. LIF (10 ng) or VEGF (100 ng) was injected in the vitreous cavity (0.1% BSA/PBS as control). TRITC-dextran was used to indicate the vascular leakage. Retinal vasculature was labeled by FITC-lectin, n=5.

## LIF: recombinant human leukemia inhibitory factor, a member of the IL-6 family of cytokines
[1]
  mitogenic activity on BRE cells: exerted mitogenic activity
Mouse choroidal explants
  microvascular outgrowth from the choroidal explant into the matrigel: significantly enhanced
[2]
  avascular areas in choroid compared to PBS group: reduced avascular areas
Guinea pig skin
  vascular permeability in guinea pig skin: does not induce vascular permeability
